Organism: Rattus norvegicus
Test: DrugMatrix - Regimen: Daily Repeat
Format: toxicity, organism-based, Sprague-Dawley
Set-up: regimen Daily Repeat, gender Male, age 6-8 weeks
Details: in vivo, po, route oral GAVAGE, vehicle 100 % WATER; for ABSOLUTE BASOPHIL / ABSOLUTE EOSINOPHIL / ABSOLUTE LYMPHOCYTE / ABSOLUTE MONOCYTE / ABSOLUTE SEGMENTED NEUTROPHIL / BASOPHIL / EOSINOPHIL / ERYTHROCYTE COUNT / HEMATOCRIT / HEMOGLOBIN / LEUKOCYTE COUNT / LYMPHOCYTE / MEAN CORPUSCULAR HEMOGLOBIN / MEAN CORPUSCULAR HEMOGLOBIN CONCENTRATION / MEAN CORPUSCULAR VOLUME / MONOCYTE / NEUTROPHIL / NUCLEATED RED BLOOD CELLS / PLATELET COUNT: tissue Blood; for ALANINE AMINOTRANSFERASE / ALBUMIN / ALKALINE PHOSPHATASE / ASPARTATE AMINOTRANSFERASE / BLOOD UREA NITROGEN / CARBON DIOXIDE / CHLORIDE / CHOLESTEROL / CREATINE PHOSPHOKINASE / CREATININE / GLUCOSE / LACTATE DEHYDROGENASE / LIPASE / PHOSPHORUS / POTASSIUM / SODIUM / TOTAL BILIRUBIN / TOTAL PROTEIN / URIC ACID: tissue Plasma
[1] = 20 mg/kg, 72 h, dose level Low, time 3 day
[2] = 20 mg/kg, 120 h, dose level Low, time 5 day
[3] = 688 mg/kg, 72 h, dose level High, time 3 day
[4] = 688 mg/kg, 120 h, dose level High, time 5 day

COc1ccc(CN(CCN(C)C)c2ccccn2)cc1 [PYRILAMINE]
ABSOLUTE BASOPHIL [1]: 0 CELLS/uL
ABSOLUTE EOSINOPHIL [1]: 0 CELLS/uL
ABSOLUTE LYMPHOCYTE [1]: 6764.67 CELLS/uL
ABSOLUTE MONOCYTE [1]: 0 CELLS/uL
ABSOLUTE SEGMENTED NEUTROPHIL [1]: 435.33 CELLS/uL
BASOPHIL [1]: 0%
EOSINOPHIL [1]: 0%
ERYTHROCYTE COUNT [1]: 5.22 x10E6/uL
HEMATOCRIT [1]: 33.7%
HEMOGLOBIN [1]: 13.67 G/DL
LEUKOCYTE COUNT [1]: 7.2 x10E3/uL
LYMPHOCYTE [1]: 93.67%
MEAN CORPUSCULAR HEMOGLOBIN [1]: 26.2 pg
MEAN CORPUSCULAR HEMOGLOBIN CONCENTRATION [1]: 40.57 G/DL
MEAN CORPUSCULAR VOLUME [1]: 64.53 fL
MONOCYTE [1]: 0%
NEUTROPHIL [1]: 6.33%
NUCLEATED RED BLOOD CELLS [1]: 0 /100WBC
PLATELET COUNT [1]: 1037.67 x10E3/uL
ALANINE AMINOTRANSFERASE [1]: 45.67 u/L
ALBUMIN [1]: 4.37 G/DL
ALKALINE PHOSPHATASE [1]: 340.33 u/L
ASPARTATE AMINOTRANSFERASE [1]: 91.33 u/L
BLOOD UREA NITROGEN [1]: 16.67 mg/dL
CARBON DIOXIDE [1]: 33.67 mmol/L
CHLORIDE [1]: 98.33 MEQ/L
CHOLESTEROL [1]: 83 mg/dL
CREATINE PHOSPHOKINASE [1]: 408.33 u/L
CREATININE [1]: 0.23 mg/dL
GLUCOSE [1]: 112.67 mg/dL
LACTATE DEHYDROGENASE [1]: 148.67 u/L
LIPASE [1]: 10.33 u/L
PHOSPHORUS [1]: 11.07 mg/dL
POTASSIUM [1]: 6.81 MEQ/L
SODIUM [1]: 145.13 MEQ/L
TOTAL BILIRUBIN [1]: 0.2 mg/dL
TOTAL PROTEIN [1]: 6.37 G/DL
URIC ACID [1]: 0.83 mg/dL
ABSOLUTE BASOPHIL [2]: 0 CELLS/uL
ABSOLUTE EOSINOPHIL [2]: 0 CELLS/uL
ABSOLUTE LYMPHOCYTE [2]: 14373.33 CELLS/uL
ABSOLUTE MONOCYTE [2]: 89.33 CELLS/uL
ABSOLUTE SEGMENTED NEUTROPHIL [2]: 1937.33 CELLS/uL
BASOPHIL [2]: 0%
EOSINOPHIL [2]: 0%
ERYTHROCYTE COUNT [2]: 5.38 x10E6/uL
HEMATOCRIT [2]: 33.67%
HEMOGLOBIN [2]: 13.67 G/DL
LEUKOCYTE COUNT [2]: 16.4 x10E3/uL
LYMPHOCYTE [2]: 88.33%
MEAN CORPUSCULAR HEMOGLOBIN [2]: 25.47 pg
MEAN CORPUSCULAR HEMOGLOBIN CONCENTRATION [2]: 40.63 G/DL
MEAN CORPUSCULAR VOLUME [2]: 62.73 fL
MONOCYTE [2]: 0.67%
NEUTROPHIL [2]: 11%
NUCLEATED RED BLOOD CELLS [2]: 0 /100WBC
PLATELET COUNT [2]: 1183.67 x10E3/uL
ALANINE AMINOTRANSFERASE [2]: 53.33 u/L
ALBUMIN [2]: 4.13 G/DL
ALKALINE PHOSPHATASE [2]: 437.33 u/L
ASPARTATE AMINOTRANSFERASE [2]: 80.67 u/L
BLOOD UREA NITROGEN [2]: 17 mg/dL
CARBON DIOXIDE [2]: 28.67 mmol/L
CHLORIDE [2]: 104.67 MEQ/L
CHOLESTEROL [2]: 64.33 mg/dL
CREATINE PHOSPHOKINASE [2]: 242 u/L
CREATININE [2]: 0.17 mg/dL
GLUCOSE [2]: 160 mg/dL
LACTATE DEHYDROGENASE [2]: 86.33 u/L
LIPASE [2]: 8.67 u/L
PHOSPHORUS [2]: 14.2 mg/dL
POTASSIUM [2]: 6.63 MEQ/L
SODIUM [2]: 147.07 MEQ/L
TOTAL BILIRUBIN [2]: 0.17 mg/dL
TOTAL PROTEIN [2]: 6 G/DL
URIC ACID [2]: 1.7 mg/dL
ABSOLUTE BASOPHIL [3]: 0 CELLS/uL
ABSOLUTE EOSINOPHIL [3]: 0 CELLS/uL
ABSOLUTE LYMPHOCYTE [3]: 13165.67 CELLS/uL
ABSOLUTE MONOCYTE [3]: 0 CELLS/uL
ABSOLUTE SEGMENTED NEUTROPHIL [3]: 1201 CELLS/uL
BASOPHIL [3]: 0%
EOSINOPHIL [3]: 0%
ERYTHROCYTE COUNT [3]: 5.73 x10E6/uL
HEMATOCRIT [3]: 34.93%
HEMOGLOBIN [3]: 14.1 G/DL
LEUKOCYTE COUNT [3]: 14.37 x10E3/uL
LYMPHOCYTE [3]: 91.67%
MEAN CORPUSCULAR HEMOGLOBIN [3]: 24.63 pg
MEAN CORPUSCULAR HEMOGLOBIN CONCENTRATION [3]: 40.37 G/DL
MEAN CORPUSCULAR VOLUME [3]: 61.07 fL
MONOCYTE [3]: 0%
NEUTROPHIL [3]: 8.33%
NUCLEATED RED BLOOD CELLS [3]: 0 /100WBC
PLATELET COUNT [3]: 1288.33 x10E3/uL
ALANINE AMINOTRANSFERASE [3]: 50.67 u/L
ALBUMIN [3]: 4.27 G/DL
ALKALINE PHOSPHATASE [3]: 466 u/L
ASPARTATE AMINOTRANSFERASE [3]: 87.67 u/L
BLOOD UREA NITROGEN [3]: 12.33 mg/dL
CARBON DIOXIDE [3]: 34 mmol/L
CHLORIDE [3]: 100.67 MEQ/L
CHOLESTEROL [3]: 65.67 mg/dL
CREATINE PHOSPHOKINASE [3]: 183.33 u/L
CREATININE [3]: 0.13 mg/dL
GLUCOSE [3]: 155.33 mg/dL
LACTATE DEHYDROGENASE [3]: 142 u/L
LIPASE [3]: 9 u/L
PHOSPHORUS [3]: 13.33 mg/dL
POTASSIUM [3]: 6.65 MEQ/L
SODIUM [3]: 145.23 MEQ/L
TOTAL BILIRUBIN [3]: 0.1 mg/dL
TOTAL PROTEIN [3]: 5.8 G/DL
URIC ACID [3]: 1.7 mg/dL
ABSOLUTE BASOPHIL [4]: 0 CELLS/uL
ABSOLUTE EOSINOPHIL [4]: 82 CELLS/uL
ABSOLUTE LYMPHOCYTE [4]: 13712.5 CELLS/uL
ABSOLUTE MONOCYTE [4]: 237 CELLS/uL
ABSOLUTE SEGMENTED NEUTROPHIL [4]: 1918.5 CELLS/uL
BASOPHIL [4]: 0%
EOSINOPHIL [4]: 0.5%
ERYTHROCYTE COUNT [4]: 6.11 x10E6/uL
HEMATOCRIT [4]: 37.55%
HEMOGLOBIN [4]: 14.85 G/DL
LEUKOCYTE COUNT [4]: 15.95 x10E3/uL
LYMPHOCYTE [4]: 86%
MEAN CORPUSCULAR HEMOGLOBIN [4]: 24.3 pg
MEAN CORPUSCULAR HEMOGLOBIN CONCENTRATION [4]: 39.6 G/DL
MEAN CORPUSCULAR VOLUME [4]: 61.35 fL
MONOCYTE [4]: 1.5%
NEUTROPHIL [4]: 12%
NUCLEATED RED BLOOD CELLS [4]: 0 /100WBC
PLATELET COUNT [4]: 1201.5 x10E3/uL
ALANINE AMINOTRANSFERASE [4]: 60.5 u/L
ALBUMIN [4]: 4.45 G/DL
ALKALINE PHOSPHATASE [4]: 346.5 u/L
ASPARTATE AMINOTRANSFERASE [4]: 96 u/L
BLOOD UREA NITROGEN [4]: 14.5 mg/dL
CARBON DIOXIDE [4]: 35.5 mmol/L
CHLORIDE [4]: 99 MEQ/L
CHOLESTEROL [4]: 60 mg/dL
CREATINE PHOSPHOKINASE [4]: 292 u/L
CREATININE [4]: 0.24 mg/dL
GLUCOSE [4]: 142 mg/dL
LACTATE DEHYDROGENASE [4]: 333.5 u/L
LIPASE [4]: 11 u/L
PHOSPHORUS [4]: 13.2 mg/dL
POTASSIUM [4]: 6.7 MEQ/L
SODIUM [4]: 146.5 MEQ/L
TOTAL BILIRUBIN [4]: 0.15 mg/dL
TOTAL PROTEIN [4]: 6 G/DL
URIC ACID [4]: 2 mg/dL

Reference: ChEMBL document CHEMBL3885881, “DrugMatrix”
